According to PMC8285431, “Machine learning designs non-hemolytic antimicrobial peptides” (Chemical Science, 2021):
Ends that are not written are not given here.

Tests used:
[1] = test system: human red blood cells; conditions: 10 mM phosphate buffer saline pH 7.4, 25 °C, 4 h, visual inspection, 0.1% Triton X-100 positive control
Protocol: Compounds were subjected to a hemolysis assay to assess the hemolytic effect on human red blood cells (hRBCs). The blood was obtained from Interregionale Blutspende SRK AG, Bern, Switzerland. 1.5 mL of whole blood was centrifuged at 3000 rpm for 15 minutes at 4 °C. The plasma was discarded, and the hRBC pellet was re-suspended in 5 mL of PBS (pH 7.4) then centrifuged at 3000 rpm for 5 minutes at 4 °C. The washing of hRBC was repeated three times and the remaining pellet was re-suspended in 10 mL of PBS.
The samples were prepared as the initial concentration of 4000 μg mL^−1 in PBS, added to the first well of 96-well microtiter plate (TPP, untreated) and diluted serially by 1/2. […] Controls on each plate included a blank medium control (PBS 100 μL) and a hemolytic activity control (0.1% Triton X-100). 100 μL of hRBC suspension was incubated with 100 μL of each sample in PBS in 96-well plate (Nunc 96-Well Polystyrene Conical Bottom MicroWell Plates). After the plates were incubated for 4 h at room temperature, minimal hemolytic concentration (MHC) was determined by visual inspection of the wells. 100 μL supernatants was carefully pipetted to a flat bottom, clear wells plate (TPP® tissue culture plates, polystyrene).

[2] = test system: P. aeruginosa; test: MIC, broth microdilution; assay type: cell-based, Pseudomonas aeruginosa; conditions: Mueller–Hinton medium, 16–20 h at 37 °C, trifluoroacetate salts
Text: (§1) We synthesized the selected 14 GN and 14 GP peptides by solid phase peptide synthesis and evaluated the activity of their HPLC-purified trifluoroacetate salts by determining minimum inhibitory concentrations (MIC) against bacteria by broth microdilution assay in Muller–Hinton medium and minimum hemolysis concentrations (MHC) on human red blood cells by serial dilution in phosphate buffer saline (Table 1).
(§2) To determine the minimal inhibitory concentration (MIC), the broth microdilution method was used. A colony of bacteria was grown in LB (Lysogeny broth) medium overnight at 37 °C. The samples were prepared as stock solutions of 8 mg mL^−1 in H2O, diluted to the initial concentration of 64 or 128 μg mL^−1 in 300 μL Mueller–Hinton (MH) medium, added to the first well of 96-well microtiter plate (TPP, untreated), and diluted serially by 1/2. The concentration of the bacteria was quantified by measuring absorbance at 600 nm and diluted to OD600 = 0.022 in MH medium. The sample solutions (150 μL) were mixed with 4 μL diluted bacterial suspension with a final inoculation of about of 5 × 10^5 CFU. The plates were incubated at 37 °C until satisfactory growth (∼18 h). […] The MIC was defined as the lowest concentration of the peptide dendrimer that inhibited visible growth of the tested bacteria, as detected after treatment with MTT.

[3] = test system: A. baumannii; test: MIC, broth microdilution; assay type: cell-based, Acinetobacter baumannii; conditions: Mueller–Hinton medium, 16–20 h at 37 °C, trifluoroacetate salts
Text: as §1, §2

[4] = test system: MRSA; test: MIC, broth microdilution; assay type: cell-based, methicillin-resistant Staphylococcus aureus; conditions: Mueller–Hinton medium, 16–20 h at 37 °C, trifluoroacetate salts
Text: as §1, §2

[5] = test system: E. coli; test: MIC, broth microdilution; assay type: cell-based, Escherichia coli; conditions: Mueller–Hinton medium, 16–20 h at 37 °C, trifluoroacetate salts
Text: as §1, §2

[6] = test system: P. aeruginosa PA14 2P4 (pmrB); test: MIC, broth microdilution; assay type: cell-based; conditions: spontaneous mutant, polymyxin B resistant; Müller–Hinton medium, 16–20 h, 37 °C; two independent experiments in duplicate
Protocol: (§3) To determine the minimal inhibitory concentration (MIC), the broth microdilution method was used. A colony of bacteria was grown in LB (Lysogeny broth) medium overnight at 37 °C. The samples were prepared as stock solutions of 8 mg mL^−1 in H2O, diluted to the initial concentration of 64 or 128 μg mL^−1 in 300 μL Mueller–Hinton (MH) medium, added to the first well of 96-well microtiter plate (TPP, untreated), and diluted serially by 1/2. The concentration of the bacteria was quantified by measuring absorbance at 600 nm and diluted to OD600 = 0.022 in MH medium. The sample solutions (150 μL) were mixed with 4 μL diluted bacterial suspension with a final inoculation of about of 5 × 10^5 CFU. The plates were incubated at 37 °C until satisfactory growth (∼18 h). For each test, two columns of the plate were kept for sterility control (broth only) and growth control (broth with bacterial inoculums, no antibiotics). The MIC was defined as the lowest concentration of the peptide dendrimer that inhibited visible growth of the tested bacteria, as detected after treatment with MTT.

[7] = test system: P. aeruginosa PA14 4.13 (phoQ); test: MIC, broth microdilution; assay type: cell-based; conditions: spontaneous mutant, polymyxin B resistant; Müller–Hinton medium, 16–20 h, 37 °C; two independent experiments in duplicate
Protocol: as §3

[8] = test system: P. aeruginosa PA14 4.18 (pmrB); test: MIC, broth microdilution; assay type: cell-based; conditions: spontaneous mutant, polymyxin B resistant; Müller–Hinton medium, 16–20 h, 37 °C; two independent experiments in duplicate
Protocol: as §3

[9] = test system: P. aeruginosa PA14; test: MIC, broth microdilution; assay type: cell-based; conditions: Gram-negative; Müller–Hinton medium, 16–20 h, 37 °C; two independent experiments in duplicate
Protocol: as §3

[10] = test system: B. cenocepacia; assay type: cell-based; conditions: MDR Gram-negative strain; Müller–Hinton medium, 16–20 h, 37 °C; two independent experiments in duplicate
Protocol: as §3

[11] = test system: E. cloacae; assay type: cell-based; conditions: MDR Gram-negative strain; Müller–Hinton medium, 16–20 h, 37 °C; two independent experiments in duplicate
Protocol: as §3

[12] = test system: P. aeruginosa ZEM-1A; assay type: cell-based; conditions: MDR Gram-negative strain; Müller–Hinton medium, 16–20 h, 37 °C; two independent experiments in duplicate
Protocol: as §3

[13] = test system: P. aeruginosa ZEM9A; assay type: cell-based; conditions: MDR Gram-negative strain; Müller–Hinton medium, 16–20 h, 37 °C; two independent experiments in duplicate
Protocol: as §3

[14] = test system: S. epidermidis; assay type: cell-based; conditions: MDR Gram-positive strain; Müller–Hinton medium, 16–20 h, 37 °C; two independent experiments in duplicate; in µg/mL
Protocol: as §3

[15] = test system: S. maltophilia; assay type: cell-based; conditions: MDR Gram-negative strain; Müller–Hinton medium, 16–20 h, 37 °C; two independent experiments in duplicate
Protocol: as §3

[16] = test system: K. pneumoniae (OXA-48); assay type: cell-based, Klebsiella pneumoniae; conditions: MDR Gram-negative strain; Müller–Hinton medium, 16–20 h, 37 °C; two independent experiments in duplicate
Protocol: as §3

[17] = test system: K. pneumoniae NCTC148; assay type: cell-based, Klebsiella pneumoniae; conditions: MDR Gram-negative strain; Müller–Hinton medium, 16–20 h, 37 °C; two independent experiments in duplicate
Protocol: as §3

Substance	MHC (minimal hemolytic concentration) [1] [µg/mL]	other results
LRKARRLVKKLA-NH2 [GP12]	>2000	–
ARKWRKFLKKI-NH2 [GP7]	>2000	–
AKKVVKKIYKRFQK-NH2 [GP10]	>2000	–
RLRKKWRKLKKLL-NH2 [GN6]	2000	–
LKKLWKRIIKVGR-NH2 [GP6]	>2000	–
KFFRKLKKLVKK-NH2 [GN5]	>2000	–
GNWRKIVHKIKKAG-NH2 [GN12]	>2000	–
KVARFLKKFFR-NH2 [GP5]	>2000	–
LRKFWKKIRKFLKKI-NH2 [GN8]	62.5	–
GRIKRIRKIIHKY-NH2 [GP8]	>2000	–
IHKLAKLAKNVL-NH2 [GN14]	>2000	–
GIGAVLNVAKKLL-NH2 [GP4]	>2000	–
LRKARRLLKKLRARL-NH2 [GN11]	>2000	–
KRLWKRIYRLLKK-NH2 [GN9]	250	–
RWRWPILGRILR-NH2 [GP2]	500	–
FLKAVKKLIPSLF-NH2 [GP1]	2000	–
FLHSIGKAIGRLLR-NH2 [GP3]	250	–
AGRLQKVFKVIAK-NH2 [GN13]	>2000	–
ARKKWRKRLKKLKI-NH2 [GP9]	>2000	–
ARKFRRLVKKLR-NH2 [GP11]	>2000	–
LNALKKVFQKIH-NH2 [GP14]	>2000	–
RRWKWRRKIKKWL-NH2 [GN2]	1000	–
IRRIRKKIKKIFKKI-NH2 [GN10]	>2000	–
IDKWKAAFKKIKNLF-NH2 [GN3]	500	–
KRLWKIRQRIAK-NH2 [GP13]	>2000	–
LNALKKVFQKIRQGL [GN4, ML-generated linear peptide carboxamide from the P. aeruginosa/A. baumannii model]	>2000	MIC P. aeruginosa [2]: 32 µg/mL; MIC A. baumannii [3]: 16 µg/mL; MIC MRSA [4]: >64 µg/mL; MIC E. coli [5]: 4 µg/mL
AKRIRKLIKKIFKKI-NH2 [GN1]	>2000	–
Polymyxin B	–	MIC P. aeruginosa PA14 2P4 (pmrB) [6]: 2 µg/mL; MIC P. aeruginosa PA14 4.13 (phoQ) [7]: 1 µg/mL; MIC P. aeruginosa PA14 4.18 (pmrB) [8]: 2 µg/mL; MIC P. aeruginosa PA14 [9]: < 0.5 µg/mL; MIC B. cenocepacia [10]: > 64 µg/mL; MIC E. cloacae [11]: 1 µg/mL; MIC P. aeruginosa ZEM-1A [12]: 0.5 µg/mL; MIC P. aeruginosa ZEM9A [13]: 4 µg/mL; MIC S. epidermidis [14]: 32–64; MIC S. maltophilia [15]: 0.5 µg/mL; MIC K. pneumoniae (OXA-48) [16]: 1 µg/mL; MIC K. pneumoniae NCTC148 [17]: 1 µg/mL
KRIRKWVRRILKKL-NH2 [GN7]	250	–
